From publication PMC2652249 (Biochemistry, 2008)
Several values for one entry are separate records, joined by “and”; a condition that tells them apart may be missing. Identical values can stand only once. Entries after “also recorded” stand apart in the source; their conditions may differ. Like-named read-outs stand apart in the source and are kept apart here.

Assays:
DNA polymerase X (Pol X) [1] = target: T1, DNA polymerase X (Pol X) (African swine fever virus, UniProt P42494); assay: biochemical; format: biochemical
DNA polymerase X (Pol X) [2] = target: T1, DNA polymerase X (Pol X)
DNA polymerase X (Pol X) [3] = target: T1, DNA polymerase X (Pol X); details: cited from earlier work

T1 sequence (P42494 whole entry, looked up): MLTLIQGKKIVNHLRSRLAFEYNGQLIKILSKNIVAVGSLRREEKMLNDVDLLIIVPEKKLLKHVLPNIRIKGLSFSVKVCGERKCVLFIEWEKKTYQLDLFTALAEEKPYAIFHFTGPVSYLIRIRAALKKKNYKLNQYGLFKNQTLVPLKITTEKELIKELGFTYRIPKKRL

Row | SMILES | inhibition of Pol X by PPi (DNA polymerase X (Pol X) [1]) | Km (DNA polymerase X (Pol X) [1]) | Vmax (DNA polymerase X (Pol X) [1]) | global fitting Vmax (DNA polymerase X (Pol X) [1]) | Km (DNA polymerase X (Pol X) [1]; read-out: global fitting Km) | single-exponential rate k of fluorescence change (DNA polymerase X (Pol X) [2]) | incorporation under the steady-state conditions (DNA polymerase X (Pol X) [1]) | Ki (DNA polymerase X (Pol X) [1]; global fitting KI) | turnover rate slower than the rate of correct dG:dCTP incorporation (DNA polymerase X (Pol X) [3]) [fold] | Kd (DNA polymerase X (Pol X) [3]; read-out: KD,app) [µM] | k1 of fluorescence change (double-exponential) (DNA polymerase X (Pol X) [2]) [s⁻¹] | k2 of fluorescence change (double-exponential) (DNA polymerase X (Pol X) [2]) [s⁻¹]
1 | O=P(O)(O)OP(=O)(O)O [PPi, Pyrophosphate] | not inhibited noticeably; also recorded: modest inhibition | – | – | – | – | – | – | – | – | – | – | –
2 | Nc1ccn([C@H]2C[C@H](O)[C@@H](COP(=O)(O)OP(=O)(O)OP(=O)(O)O)O2)c(=O)n1 [dCTP] | – | 32 µM and 45 µM | 0.52 ± 0.02 nmol/min and 0.49 ± 0.02 nmol/min | 0.51 nmol/min and 0.47 nmol/min | 35 µM and 41 µM | 1.64 s⁻¹ and 1.64 ± 0.01 s⁻¹ | – | – | – | – | – | –
3 | Nc1ncnc2c1ncn2[C@H]1C[C@H](O)[C@@H](COP(=O)(O)OP(=O)(O)OP(=O)(O)O)O1 [dATP] | – | – | – | 1.51 nmol/min | 13 µM | – | no detectable incorporation | 48 µM and 150 µM | 430 | 80 | 5.92 ± 0.21 | 1.17 ± 0.02
